{"source": "patent US20140038953A1", "about": "“COMPOSITIONS AND METHODS FOR CARDIOVASCULAR DISEASE” (THE GENERAL HOSPITAL CORPORATION, priority 2011, published 2014)", "assay_type_in_all_cases": "in vivo", "key": {"LDLR−/− mice [1]": {"tested_on": "LDLR−/− mice", "assay": "Vascular inflammation / macrophage activity in LDLR−/− mice (Prosense, MAC2)", "settings": "for vascular inflammation / macrophage activity (Prosense): high fat diet 20 weeks, 2.5 mg/kg ip daily, vs vehicle, 2.5 mg/kg", "method": "Fluorescence reflectance imaging (FRI), was performed as previously described. […] After dissection, aortae were subjected to ex vivo near infrared fluorescence reflectance imaging using an Odyssey Imaging System (LI-COR Biotechnology, Lincoln, Nebr.), with integrated signal intensities determined for regions of interest using software version 3.0.16.\nFor immunofluorescence, frozen sections were post-fixed in cold methanol and incubated with polyclonal antibodies specific for p-SMAD1/5/8 (1:100, Cell Signaling, Danvers, Mass.) or MAC2 (1:100, Cedarlane, Burlington, ON) followed by FITC labeled Goat Anti-Rabbit IgG or Rhodamine Goat Anti-Rat IgG (both Jackson Immuno Research, West Grove, Pa.), respectively.\nMice were injected with Osteosense (to label sites of bone-forming activity via osteoblast binding of this probe) and Prosense (to label sites of macrophage-mediated inflammation). Aortae were explanted and subjected to fluorescence reflectance imaging (LICOR Odyssey imager).\nInflammatory activity, a surrogate of atherosclerotic plaque burden, was assessed by near-IR fluorescence of Prosense (fluor-cathepsin substrate) at […]. Ten individual mice were used in each treatment group.\nInflammatory activity, a surrogate of atherosclerotic plaque burden, was assessed by integrated intensity of near-IR fluorescence of Prosense (fluor-cathepsin substrate) at […].\nEach treatment group consisted of a total of 10 mice. After 4 weeks of atherogenic diet and drug or vehicle treatment, the animals were sacrificed. The frontal plane sections of the aortic arch were dissected out and stained for macrophage marker (MAC2) and counterstained with DAPI."}, "C57BL/6 mice": {"tested_on": "C57BL/6 mice", "assay": "Blood biochemical analysis in WT mice fed a high fat diet", "method": "Female mice deficient for the low density lipoprotein receptor (LDLR^−/−) on a C57BL/6 background with appropriate control mice mice (eight weeks of age) were obtained from Jackson Laboratories (Bar Harbor, Me.). Animals were fed a western style diet formulated to match Paigen's Atherogenic Rodent Diet (42% fat, 0.15% cholesterol, 19.5% casein; Research Diets Inc., New Brunswick, N.J.).\n[…], white blood count, hematocrit, hemoglobin, and platelets were analyzed using a HemaTrue™ Hematology Analyzer (Heska AG, Switzerland). Urea nitrogen, glucose, alkaline phosphatase, total protein, alanine transaminase and creatinine were determined using a Spotchem EZ SP-4430 POCT analyzer (Arkray, Inc., Kyoto, Japan). HDL and LDL levels were determined using a fluorescence quantification kit (K613-100, Biovision, Mountain View, Calif.)"}, "LDLR−/− mice [2]": {"tested_on": "LDLR−/− mice", "assay": "Atheroma burden / lesion formation in LDLR−/− mice (Oil Red O, histology)", "settings": "for lipid accumulation / atheroma burden (Oil Red O): high fat diet 20 weeks, 2.5 mg/kg ip daily, vs vehicle, 2.5 mg/kg", "method": "Aortas were either immediately embedded and cryopreserved using optimal cutting-temperature medium (Sakura Tissue-Tek, Zoeterwoude, The Netherlands) or fixed in paraformaldehyde and embedded in parafin. The presence of calcification was determined by staining tissue sections with Alizarin red or Von Kossa. Lipid accumulation in tissue sections was visualized by staining with Oil Red O. Liver sections were prepared from paraformaldehyde-fixed tissue and stained with hematoxylin and eosin.\nTo confirm that BMP signaling has a direct impact on atherogenesis, the aortae explanted from the BMP inhibitor positive control compound-treated and vehicle-treated LDLr−/− mice after 20 weeks were subjected to Oil Red 0 staining to mark lipid-rich plaques.\nLDLr−/− mice were started on a hypercholesterolemic diet at 8 weeks, and treated with either vehicle (saline) or a BMP inhibitor positive control compound (compound 13, 2.5 mg/kg/d intraperitoneally) for an additional 8 weeks. Aortae were harvested and fixed, and then stained with antibodies sensitive for the BMP effector molecule, phosphorylated-SMAD1/5/8, and counterstained with DAPI nuclear stain. Within 6-8 weeks of being subjected to a high fat diet, LDR−/− mice developed fatty lesions in the intima of the aortic root, based on traditional histochemical staining techniques (data not shown). […] Thus, the cellular components of lipid rich plaques, predominantly macrophage-derived foam cells, had evidence of intense activation of the BMP signaling pathway. In contrast, the lipid plaques found in the BMP inhibitor positive control compound-treated mice, which were diminished in size and extent as compared to those in vehicle-treated mice, had also diminished intensity of staining for the phosphorylated form of SMAD1/5/8 (data not shown). Thus, hypercholesterolemic mice had evidence of intense BMP signaling pathway activation in the cellular components of atheromatous lesions, and treatment of hypercholesterolemic mice with the BMP inhibitor positive control compound diminished the activation of the BMP signaling pathway in these lesions.\n(§1) LDLR−/− deficient mice were intiated on an atherogenic diet (Paigen) at 8 weeks of age, and administered either vehicle, a BMP inhibitor positive control compound (compound 13, 2.5 mg/kg IP daily) or ALK3-Fc (2 mg/kg IP every other day). Each treatment group consisted of a total of 10 mice. After 4 weeks of atherogenic diet and drug or vehicle treatment, the animals were sacrificed. The frontal plane sections of the aortic arch were dissected out and stained for macrophage marker (MAC2) and counterstained with DAPI.\nas §1, with “initiated” for “intiated”, “([…]” for “(2”, “day).” for “day). Each treatment group consisted of a total of 10 mice.”, “6” for “4”, “and” for “and drug or vehicle”, “phosphorylated SMAD1/5/8” for “macrophage marker (MAC2)”"}, "[3]": {"settings": "high fat diet and treatment 6 weeks, compound 13 2.5 mg/kg ip daily, ALK3-Fc 2 mg/kg ip every other day"}, "[4]": {"settings": "female C57BL/6 WT mice, high fat diet 30 weeks, 2.5 mg/kg ip daily, mean ± SEM"}}, "note": "“Also recorded” adds a separate entry of the source.", "data": [{"smiles": "c1ccc2c(-c3cnn4cc(-c5ccc(N6CCNCC6)cc5)cnc34)ccnc2c1", "note": "[Compound 13, 4-[6-(4-piperazin-1-ylphenyl)pyrazolo[1,5-a]pyrimidin-3-yl]quinoline]", "values": [{"measurement": "MAC2 staining of aortic arch", "setting": "LDLR−/− mice [1]; atherogenic diet and treatment 4 weeks, compound 13 2.5 mg/kg IP daily, ALK3-Fc 2 mg/kg IP every other day", "result": "decreased staining for MAC2"}, {"measurement": "vascular inflammation / macrophage activity (Prosense)", "setting": "LDLR−/− mice [1]", "result": "marked reduction in vascular inflammation; also recorded: severely diminished evidence of macrophage activity"}, {"measurement": "vascular inflammation / macrophage activity (Prosense)", "setting": "LDLR−/− mice [1]; listed as BMP inhibitor positive control compound", "result": "can reduce vascular calcification and vascular inflammation"}, {"measurement": "foam cell accumulation / macrophage burden (MAC2)", "setting": "LDLR−/− mice [1]; [3]", "result": "inhibited foam cell accumulation"}, {"measurement": "macrophage / cathepsin activity in aorta (Prosense)", "setting": "LDLR−/− mice [1]; [3]", "result": "as did treatment with compound 13; also recorded: significantly reduced; also recorded: significantly inhibited"}, {"measurement": "Alanine transaminase", "setting": "C57BL/6 mice; [4]", "result": "159 ± 19", "unit": "IU/L"}, {"measurement": "Alkaline phosphatase", "setting": "C57BL/6 mice; [4]", "result": "109 ± 8", "unit": "IU/L"}, {"measurement": "Blood urea nitrogen", "setting": "C57BL/6 mice; [4]", "result": "25 ± 1", "unit": "mg/dL"}, {"measurement": "Cholesterol", "setting": "C57BL/6 mice; [4]", "result": "183 ± 6", "unit": "mg/dL"}, {"measurement": "Creatinine", "setting": "C57BL/6 mice; [4]", "result": "0.5 ± 0.0", "unit": "mg/dL"}, {"measurement": "Glucose", "setting": "C57BL/6 mice; [4]", "result": "311 ± 12", "unit": "mg/dL"}, {"measurement": "Hemoglobin", "setting": "C57BL/6 mice; [4]", "result": "13.5 ± 1.0", "unit": "g/dL"}, {"measurement": "Total protein", "setting": "C57BL/6 mice; [4]", "result": "4.7 ± 0.2", "unit": "g/dL"}, {"measurement": "Triglycerides", "setting": "C57BL/6 mice; [4]", "result": "82 ± 21", "unit": "mg/dL"}, {"measurement": "total serum cholesterol vs vehicle", "setting": "C57BL/6 mice; wild-type animals on a HFD, in words", "result": "reduced total serum cholesterol"}, {"measurement": "lesion formation in aortic arch", "setting": "LDLR−/− mice [2]; LDLR−/− mice, atherogenic diet and treatment 4 weeks, compound 13 2.5 mg/kg IP daily, ALK3-Fc 2 mg/kg IP every other day", "result": "decreased lesion formation overall"}, {"measurement": "lesion formation / atherogenesis", "setting": "LDLR−/− mice [2]; LDLR−/− mice, atherogenic diet and treatment 6 weeks", "result": "decreased lesion formation overall"}, {"measurement": "lipid accumulation / atheroma burden (Oil Red O)", "setting": "LDLR−/− mice [2]; LDLR−/− mice", "result": "Atheroma burden was reduced; also recorded: marked reduction"}, {"measurement": "lipid accumulation / atheroma burden (Oil Red O)", "setting": "LDLR−/− mice [2]; LDLR−/− mice, listed as BMP inhibitor positive control compound", "result": "consistently more severe in vehicle-treated"}, {"measurement": "intimal atheroma formation", "setting": "LDLR−/− mice [2]; LDLr−/− mice, hypercholesterolemic diet and treatment 8 weeks, 2.5 mg/kg/d ip", "result": "reduced intimal atheroma formation"}]}]}
